Read-outs that look alike come from different tables or passages of the source.
Experiments:
[1] = tested on: Sweetpotato Whitefly-Crawler (Bemisia Tabaci); experiment: Insecticidal test for sweetpotato whitefly-crawler in foliar spray assay (col. BEMITA); assay type: in vivo; details: for pest or weed control at 200 ppm: Bemisia tabaci, read-out: BEMITA 200 ppm (Corrected % Control, rating)
Outline: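 Cotton plants (one 3-5 cm true leaf) infested with whitefly eggs (100-300/plant), held 5-6 days at 82° F, 50% RH until crawlers developed. Sprayed to runoff at 200 ppm (acetone stock diluted in 0.025% Tween 20), four plants per treatment. Live nymphs counted after 8-9 days; % control by Abbott's correction versus solvent check.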

[2] = tested on: Green Peach Aphid (Myzus Persicae); experiment: Insecticidal test for green peach aphid in foliar spray assay (col. MYZUPE); assay type: in vivo; details: for pest or weed control at 200 ppm: Myzus persicae, 72 h, read-out: MYZUPE 200 ppm (Corrected % Control, rating)
Outline: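 Cabbage seedlings with 2-3 true leaves, infested with 20-50 wingless adult and nymph aphids one day earlier, sprayed to runoff at 200 ppm (acetone/methanol stock diluted in 0.025% Tween 20), four pots per treatment. After 3 days at ~25 °C, 40% RH, live aphids counted; corrected % control versus solvent-sprayed plants.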

SMILES	pest or weed control at 200 ppm ([1]; sweetpotato whitefly-crawler)	pest or weed control at 200 ppm ([2]; green peach aphid)	pest or weed control at 200 ppm ([1]; Abbott's correction formula)	pest or weed control at 200 ppm ([2]; Abbott's correction formula)	other results
Cc1nc(-c2cccnc2)sc1N(C)C(=O)C(NC(=O)OC(C)(C)C)C(C)OCc1ccccc1 (stereo not drawn) [Compound 293]	< 80%	80 to 100%	–	–	–
CSCC(C)C(=O)N(C(=O)C(C)C)c1sc(-c2cncc(S(C)(=O)=O)c2)nc1C (stereo not drawn) [Compound 152]	< 80%	< 80%	–	–	–
CCN(C(=O)CC(C)(C)[S+](C)[O-])c1sc(-c2cccnc2)nc1Cl (stereo not drawn) [Compound 537]	–	–	< 80%	80 to 100%	–
CNC(C)C(=O)N(C)c1sc(-c2cccnc2)nc1C (stereo not drawn) [Compound 295]	80 to 100%	< 80%	–	–	–
CCOC1(N(C(=O)OC(C)(C)C)c2sc(-c3cccnc3)nc2C)CC1 [Compound 518]	–	–	< 80%	80 to 100%	–
CSC(C)C(=O)N(C(=O)OC(C)(C)C)c1sc(-c2cccnc2)nc1C (stereo not drawn) [Compound 357]	80 to 100%	80 to 100%	–	–	–
Cc1nc(-c2cccnc2)sc1N(C)C(=O)OCC(F)(F)F [Compound 486]	–	–	< 80%	80 to 100%	–
C=C(CC)C(=O)N(CC)c1sc(-c2cccnc2)nc1Cl [Compound 534]	–	–	80 to 100%	< 80%	–
Cc1nc(-c2cccnc2)sc1N(C(=O)C(C)C)C(=O)C(C)C [Compound 21, N-isobutyryl-N-(4-methyl-2-pyridin-3-yl-thiazol-5-yl)-isobutyramide]	80 to 100%	80 to 100%	–	–	–
C=CCSCC(C)C(=O)N(C)c1sc(-c2cccnc2)nc1C (stereo not drawn) [Compound 138]	80 to 100%	80 to 100%	–	–	–
CSCC(C)(C)C(=O)N(C)c1sc(-c2cccnc2)nc1C(F)(F)F [Compound 45]	80 to 100%	< 80%	–	–	–
Cc1nc(-c2cccnc2)sc1N(C)C(=O)C1=CC(=O)CC(C)(C)O1 [Compound 327]	< 80%	< 80%	–	–	–
CCN(C(=O)c1ccoc1)c1sc(-c2cccnc2)nc1Cl [Compound 573]	–	–	< 80%	< 80%	–
C=CCN(C(=O)C(C)CSC)c1sc(-c2cccnc2)nc1C (stereo not drawn) [Compound 426]	80 to 100%	80 to 100%	–	–	–
CSCCC(=O)N(C)c1sc(-c2cccnc2)nc1Br [Compound 498]	–	–	80 to 100%	80 to 100%	–
CN(C(=O)C(C)(C)C[S+](C)[O-])c1sc(-c2cccnc2)nc1Cl (stereo not drawn) [Compound 269]	80 to 100%	80 to 100%	–	–	–
CCc1nc(-c2cccnc2)sc1N(C)C(=O)C(C)C [Compound 48]	80 to 100%	80 to 100%	–	–	–
Cc1nc(-c2cccnc2)sc1N(C)C(=O)C(CCCCNC(=O)OCc1ccccc1)NC(=O)OC(C)(C)C (stereo not drawn) [Compound 291]	< 80%	< 80%	–	–	–
CCc1nc(-c2cccnc2)sc1N(C)C(=O)C(F)(F)F [Compound 3, N-(4-Ethyl-2-pyridin-3-yl-thiazol-5-yl)-2,2,2-trifluoro-N-methyl-acetamide]	< 80%	< 80%	–	–	–
CCN(C(=O)c1cnco1)c1sc(-c2cccnc2)nc1Cl [Compound 542]	–	–	80 to 100%	80 to 100%	–
Cc1nc(-c2cccnc2)sc1N(C)C(=O)C1CCSC1 (stereo not drawn) [Compound 206]	80 to 100%	80 to 100%	–	–	–
CN(C(=O)c1cscn1)c1sc(-c2cccnc2)nc1Cl [Compound 341]	–	–	–	–	BEMITA 200 ppm (Corrected % Control, rating) ([1]; sweetpotato whitefly-crawler): B (Less than 80); MYZUPE 200 ppm (Corrected % Control, rating) ([2]; green peach aphid): B (Less than 80)
CSCCCC(=O)N(C)c1sc(-c2cccnc2)nc1Cl [Compound 371]	80 to 100%	80 to 100%	–	–	–
COC(=O)/C=C/CN(C(=O)C(C)CSC)c1sc(-c2cccnc2)nc1C (stereo not drawn) [Compound 464]	–	–	< 80%	80 to 100%	–
CCCC(C)OC(=O)N(C)c1sc(-c2cccnc2)nc1C (stereo not drawn) [Compound 482]	–	–	80 to 100%	80 to 100%	–
Cc1nc(-c2cncc(F)c2)sc1N(C)C(=O)C(C)CS(=O)(Cc1ccc(Cl)nc1)=NC#N (stereo not drawn) [Compound 167]	80 to 100%	< 80%	–	–	–
COC(=O)CCC(=O)N(C(=O)C(C)CSC)c1sc(-c2cccnc2)nc1C (stereo not drawn) [Compound 189]	80 to 100%	80 to 100%	–	–	–

SMILES	pest or weed control at 200 ppm ([1]; sweetpotato whitefly-crawler)	pest or weed control at 200 ppm ([2]; green peach aphid)	pest or weed control at 200 ppm ([1]; Abbott's correction formula)	pest or weed control at 200 ppm ([2]; Abbott's correction formula)	other results
CCN(C(=O)CCSc1ccccc1)c1sc(-c2cccnc2)nc1C [Compound 321]	< 80%	80 to 100%	–	–	–
CCN(C(=O)OC(C)(C)C)c1sc(-c2cccnc2)nc1Br [Compound 452]	–	–	80 to 100%	80 to 100%	–
CCSCCC(=O)N(CC)c1sc(-c2cncc(F)c2)nc1C [Compound 319]	80 to 100%	80 to 100%	–	–	–
COCCN(C(=O)OC(C)(C)C)c1sc(-c2cccnc2)nc1C [Compound 460]	–	–	< 80%	< 80%	–
CN(C(=O)c1cccc(SC(F)F)c1)c1sc(-c2cccnc2)nc1Cl [Compound 382]	< 80%	< 80%	–	–	–
CCN(C(=O)c1cccnc1)c1sc(-c2cccnc2)nc1Cl [Compound 571]	–	–	< 80%	80 to 100%	–
CSCC(C)C(=O)Nc1sc(-c2cncc(C)c2)nc1C (stereo not drawn) [Compound 171, 2-methyl-N-[4-methyl-2-(5-methyl-pyridin-3-yl)-thiazol-5-yl]-3-methylsulfanyl-propionamide]	< 80%	80 to 100%	–	–	–
CSCC(=O)N(C)c1sc(-c2cccnc2)nc1C [Compound 367]	< 80%	80 to 100%	–	–	–
CSCC(C)C(=O)N(CC(C)C)c1sc(-c2cccnc2)nc1C (stereo not drawn) [Compound 223]	80 to 100%	80 to 100%	–	–	–
C/C=C/CCC(=O)Nc1sc(-c2cccnc2)nc1C [Compound 418]	80 to 100%	80 to 100%	–	–	–
CCN(C(=O)CC(C)(C)SC)c1sc(-c2cncc(F)c2)nc1Cl [Compound 447]	–	–	80 to 100%	80 to 100%	–
CSCCC(=O)N(C)c1sc(-c2cccnc2)nc1C [Compound 35]	80 to 100%	80 to 100%	–	–	–
CN(C(=O)C1=CC(=O)CC(C)(C)O1)c1sc(-c2cccnc2)nc1Cl [Compound 328]	< 80%	< 80%	–	–	–
CN(C(=O)C(F)(F)F)c1sc(-c2cccnc2)nc1Cl [Compound 6, N-(4-Chloro-2-pyridin-3-yl-thiazol-5-yl)-2,2,2-trifluoro-N-methyl-acetamide]	< 80%	< 80%	–	–	–
Cc1nc(-c2cccnc2)sc1NC(=O)OC(C)(C)C [Compound 9, (4-Methyl-2-pyridin-3-yl-thiazol-5-yl)-carbamic acid tert-butyl ester]	80 to 100%	80 to 100%	–	–	–
CC/N=C(\SCC)N(C)c1sc(-c2cccnc2)nc1C [Compound 471, 2,3-diethyl-1-methyl-1-(4-methyl-2-pyridin-3-yl-thiazol-5-yl)-isothiourea]	–	–	< 80%	80 to 100%	–
CN(C(=O)C1CC[S+]([O-])C1)c1sc(-c2cccnc2)nc1Cl (stereo not drawn) [Compound 523]	–	–	< 80%	80 to 100%	–
CSCC(C)C(=O)N(C(=O)C(C)CSC)c1sc(-c2cccnc2)nc1C (stereo not drawn) [Compound 173]	80 to 100%	80 to 100%	–	–	–
Cc1nc(-c2cncc(F)c2)sc1N(C)C(=O)C(C)CS(C)(=O)=NC#N (stereo not drawn) [Compound 168]	80 to 100%	80 to 100%	–	–	–
Cc1nc(-c2cccnc2)sc1NC(=O)C(F)(F)C(F)(F)C(F)(F)C(F)(F)F [Compound 428]	–	–	< 80%	< 80%	–
CCN(C(=O)CCSC)c1sc(-c2cccnc2)nc1Cl [Compound 313, N-(4-chloro-2-pyridin-3-yl-thiazol-5-yl)-N-ethyl-3-methylsulfanyl-propionamide]	80 to 100%	80 to 100%	–	–	–
Cc1cc(C(=O)Nc2sc(-c3cccnc3)nc2C)ccn1 [Compound 406]	< 80%	80 to 100%	–	–	–
COCCN(C(=O)C(C)CSC)c1sc(-c2cccnc2)nc1C (stereo not drawn) [Compound 465]	–	–	< 80%	80 to 100%	–
CN(C(=O)c1ccc(=O)n(C)n1)c1sc(-c2cccnc2)nc1Cl [Compound 405]	–	–	–	–	BEMITA 200 ppm (Corrected % Control, rating) ([1]; sweetpotato whitefly-crawler): B (Less than 80); MYZUPE 200 ppm (Corrected % Control, rating) ([2]; green peach aphid): A (80-100)
CSCC(C)(C)C(=O)Nc1sc(-c2cccnc2)nc1C(F)(F)F [Compound 135]	< 80%	80 to 100%	–	–	–
CCO[C@@H]1[C@@H](OC)[C@H](C)OC(OC(=O)Nc2sc(-c3cccnc3)nc2C)[C@@H]1OC (mixture of isomers) [Compound 182]	< 80%	80 to 100%	–	–	–
Cc1nc(-c2cccnc2)sc1N(C)C(=O)[C@@H](C)N(C)C(=O)OCc1ccccc1 [Compound 439]	–	–	< 80%	< 80%	–

— patent publication US8853246B2 (Dow AgroSciences LLC, priority 2009, dated 2014)
